The supplement of paper PMC9663587

Legend:
Experiment in all cases: area over the GR curve, 72 h; higher = more effect;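 note: Dye Drop or Deep Dye Drop imaging of viable cells in 384-well plates (Hoechst nuclei, LIVE/DEAD dye), nine half-log doses, GR normalized to DMSO controls and time-zero plates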
[1] = tested on: BT20
[2] = tested on: BT549
[3] = tested on: CAL51
[4] = tested on: CAL851
[5] = tested on: CAMA1
[6] = tested on: HCC1954
[7] = tested on: HCC38
[8] = tested on: MDAMB330
[9] = tested on: PDX1328
[10] = tested on: SUM149

SMILES: CN(C)C(=O)c1cc2cnc(Nc3ccc(N4CCNCC4)cn3)nc2n1C1CCCC1 [LEE011/Ribociclib] (max 10 µM)
- area over the GR curve [1]: 0.433 GR
- area over the GR curve [2]: 0.0102 GR
- area over the GR curve [3]: 0.299 GR
- area over the GR curve [4]: 0.0857 GR
- area over the GR curve [5]: 0.651 GR
- area over the GR curve [6]: 0.309 GR
- area over the GR curve [7]: 0.417 GR
- area over the GR curve [8]: 0.824 GR
- area over the GR curve [9]: 0.406 GR
- area over the GR curve [10]: 0.188 GR

SMILES: CCNC(=O)c1noc(-c2cc(C(C)C)c(O)cc2O)c1-c1ccc(CN2CCOCC2)cc1 [Luminespib/NVP-AUY922] (max 1 µM)
- area over the GR curve [1]: 0.559 GR
- area over the GR curve [2]: 0.612 GR
- area over the GR curve [3]: 0.704 GR
- area over the GR curve [4]: 0.75 GR
- area over the GR curve [5]: 0.535 GR
- area over the GR curve [6]: 0.601 GR
- area over the GR curve [7]: 0.624 GR
- area over the GR curve [8]: 0.887 GR
- area over the GR curve [9]: 0.751 GR
- area over the GR curve [10]: 0.754 GR

SMILES: CCOc1cc2ncc(C#N)c(Nc3ccc(OCc4ccccn4)c(Cl)c3)c2cc1NC(=O)/C=C/CN(C)C [Neratinib/HKI272] (max 3.162 µM)
- area over the GR curve [1]: 0.147 GR
- area over the GR curve [2]: 0.0779 GR
- area over the GR curve [3]: 0.091 GR
- area over the GR curve [4]: 0.538 GR
- area over the GR curve [5]: 0.0703 GR
- area over the GR curve [6]: 0.429 GR
- area over the GR curve [7]: 0.102 GR
- area over the GR curve [8]: 1.18 GR
- area over the GR curve [9]: 0.314 GR
- area over the GR curve [10]: 0.358 GR

SMILES: O=C(c1cc(Cc2n[nH]c(=O)c3ccccc23)ccc1F)N1CCN(C(=O)C2CC2)CC1 [Olaparib/AZD2281] (max 10 µM)
- area over the GR curve [1]: 0.0657 GR
- area over the GR curve [2]: 0.0657 GR
- area over the GR curve [3]: 0.116 GR
- area over the GR curve [4]: 0.135 GR
- area over the GR curve [5]: 0.0527 GR
- area over the GR curve [6]: 0.0536 GR
- area over the GR curve [7]: 0.0719 GR
- area over the GR curve [8]: 0.0605 GR
- area over the GR curve [9]: 0.0373 GR
- area over the GR curve [10]: 0.184 GR

SMILES: CC(=O)O[C@H]1C(=O)[C@@]2(C)[C@H]([C@H](OC(=O)c3ccccc3)[C@]3(O)C[C@H](OC(=O)[C@H](O)[C@@H](NC(=O)c4ccccc4)c4ccccc4)C(C)=C1C3(C)C)[C@]1(OC(C)=O)CO[C@@H]1C[C@@H]2O [Paclitaxel] (max 1 µM)
- area over the GR curve [1]: 0.985 GR
- area over the GR curve [2]: 0.699 GR
- area over the GR curve [3]: 0.669 GR
- area over the GR curve [4]: 0.793 GR
- area over the GR curve [5]: 0.953 GR
- area over the GR curve [6]: 0.827 GR
- area over the GR curve [7]: 0.843 GR
- area over the GR curve [8]: 0.846 GR
- area over the GR curve [9]: 0.866 GR
- area over the GR curve [10]: 0.839 GR

SMILES: CS(=O)(=O)N1CCN(Cc2cc3nc(-c4cccc5[nH]ncc45)nc(N4CCOCC4)c3s2)CC1 [Pictilisib/GDC0941] (max 10 µM)
- area over the GR curve [1]: 0.296 GR
- area over the GR curve [2]: 0.208 GR
- area over the GR curve [3]: 0.19 GR
- area over the GR curve [4]: 0.36 GR
- area over the GR curve [5]: 0.262 GR
- area over the GR curve [6]: 0.309 GR
- area over the GR curve [7]: 0.118 GR
- area over the GR curve [8]: 0.53 GR
- area over the GR curve [9]: 0.296 GR
- area over the GR curve [10]: 0.117 GR

SMILES: O=C1NC(=NCc2cccs2)SC1=Cc1ccc2ncccc2c1 [R0-3306] (max 10 µM)
- area over the GR curve [1]: 0.109 GR
- area over the GR curve [2]: 0.12 GR
- area over the GR curve [3]: 0.067 GR
- area over the GR curve [4]: 0.159 GR
- area over the GR curve [5]: 0.0858 GR
- area over the GR curve [6]: 0.0716 GR
- area over the GR curve [7]: 0.0714 GR
- area over the GR curve [8]: 0.0605 GR
- area over the GR curve [9]: 0.112 GR
- area over the GR curve [10]: 0.106 GR

SMILES: CNCc1ccc(-c2[nH]c3cc(F)cc4c3c2CCNC4=O)cc1 [Rucaparib] (max 10 µM)
- area over the GR curve [1]: 0.0785 GR
- area over the GR curve [2]: 0.0437 GR
- area over the GR curve [3]: 0.0888 GR
- area over the GR curve [4]: 0.203 GR
- area over the GR curve [5]: 0.0981 GR
- area over the GR curve [6]: 0.059 GR
- area over the GR curve [7]: 0.139 GR
- area over the GR curve [8]: 0.107 GR
- area over the GR curve [9]: 0.151 GR
- area over the GR curve [10]: 0.2 GR

SMILES: CC1(N)CCN(c2cnc(-c3cccc(Cl)c3Cl)c(N)n2)CC1 [SHP099] (max 10 µM)
- area over the GR curve [1]: 0.0072 GR
- area over the GR curve [2]: 0.0349 GR
- area over the GR curve [3]: 0.03 GR
- area over the GR curve [4]: 0.137 GR
- area over the GR curve [5]: 0.0525 GR
- area over the GR curve [6]: 0.0791 GR
- area over the GR curve [7]: 0.172 GR
- area over the GR curve [8]: 0.121 GR
- area over the GR curve [9]: 0.0593 GR
- area over the GR curve [10]: 0.001 GR

SMILES: CN1CCN(CCOc2cc(OC3CCOCC3)c3c(Nc4c(Cl)ccc5c4OCO5)ncnc3c2)CC1 [Saracatinib/AZD0530] (max 10 µM)
- area over the GR curve [1]: 0.159 GR
- area over the GR curve [2]: 0.0348 GR
- area over the GR curve [3]: 0.227 GR
- area over the GR curve [4]: 0.184 GR
- area over the GR curve [5]: 0.0262 GR
- area over the GR curve [6]: 0.191 GR
- area over the GR curve [7]: 0.101 GR
- area over the GR curve [8]: 0.303 GR
- area over the GR curve [9]: 0.31 GR
- area over the GR curve [10]: 0.132 GR
